This is an account of results in patent US9833497B2, “Human originated EGF domain proteins and use of the same” (CHENGDU SOURCEBIO LIMITED-LIABILITY COMPANY, priority 2013, dated 2017).

Common to all, as to format: cell-based
One test concerns E. coli DH5α. Description: Antibacterial activity: MIC and growth curve against E. coli DH5α in 96-well plate. Conditions: minimal inhibitory concentration against E. coli DH5α; 96-well plate, 5×10^5 CFU/mL, 37° C., judged after 8 h. The gist of the method: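 Log-phase DH5α (OD600 about 0.5, 37° C, 185 rpm in LB) was pelleted, resuspended in fresh LB and seeded at 5×10^5 CFU/mL with recombinant protein at 50, 25 and 12.5 μg/mL (two-fold series), in triplicate. Plates were shaken at 175 rpm, 37° C, and OD600 was read every 30 min. MIC was the lowest concentration with no growth.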

For a further test, the system named is E. coli BL21. Description: MIC against Gram-negative bacteria: E. coli BL21. As to conditions: E. coli BL21, 5×10^5 CFU/mL; for MIC against E. coli BL21 / MIC: 10 h cultivation at 37° C. In outline:
(§1)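 Bacteria grown in LB at 37° C to McFarland 0.5, resuspended and seeded at 5×10^5 CFU/mL in 96-well plates. Purified human EGF-domain proteins two-fold serially diluted, triplicate wells; cultured at 37° C, shaking 175 rpm. MIC = lowest protein concentration with no growth.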

In a further test the test system is Pseudomonas aeruginosa. Description: MIC against Gram-negative bacteria: Pseudomonas aeruginosa. As to conditions: 5×10^5 CFU/mL; for MIC against P. aeruginosa / MIC: 10 h cultivation at 37° C.; for MIC: P. aeruginosa. In outline:
as §1

For a further test, the system named is Klebsiella pneumonia. The test can be described thus: MIC against Gram-negative bacteria: Klebsiella pneumonia. As to conditions: 5×10^5 CFU/mL; for MIC against K. pneumonia / MIC: 10 h cultivation at 37° C.; for MIC: K. pneumonia. In outline:
as §1

Another test relates to Enterobacter cloacae. Description: MIC against Gram-negative bacteria: Enterobacter cloacae. As to conditions: 5×10^5 CFU/mL; for MIC against E. cloacae / MIC: 10 h cultivation at 37° C.; for MIC: E. cloacae. The gist of the method: as §1
Another test concerns Aeromonas hydrophila. The test can be described thus: MIC against Gram-negative bacteria: Aeromonas hydrophila. Conditions: 5×10^5 CFU/mL; for MIC against A. hydrophila / MIC: 10 h cultivation at 37° C.; for MIC: A. hydrophila. In outline: as §1
A further test deals with Citrobacter diversus. The test can be described thus: MIC against Gram-negative bacteria: Citrobacter diversus. Conditions: 5×10^5 CFU/mL; for MIC against C. diversus / MIC: 10 h cultivation at 37° C.; for MIC: C. diversus. In outline:
as §1

The subject of the next test is Moraxella catarrhalis. The test can be described thus: MIC against Gram-negative bacteria: Moraxella catarrhalis. Conditions: 5×10^5 CFU/mL; for MIC against M. catarrhalis / MIC: 10 h cultivation at 37° C.; for MIC: M. catarrhalis. The gist of the method:
as §1

In the next test the test system is Proteus mirabilis. Description: MIC against Gram-negative bacteria: Proteus mirabilis. Conditions: 5×10^5 CFU/mL; for MIC against P. mirabilis / MIC: 10 h cultivation at 37° C.; for MIC: P. mirabilis. In outline:
as §1

A further test deals with Proteus vulgaris. The test can be described thus: MIC against Gram-negative bacteria: Proteus vulgaris. As to conditions: 5×10^5 CFU/mL; for MIC against P. vulgaris / MIC: 10 h cultivation at 37° C.; for MIC: P. vulgaris. In outline:
as §1

For a further test, the system named is Serratia marcescens. The test can be described thus: MIC against Gram-negative bacteria: Serratia marcescens. As to conditions: 5×10^5 CFU/mL; for MIC against S. marcescens / MIC: 10 h cultivation at 37° C.; for MIC: S. marcescens. The gist of the method:
as §1

On to “PRT1479 (AKNECHPERTDGCQHFCLPGQESYTCSCAQGYRLGEDHKQCV; listed as Homo sapiens)”, for which, in the test with E. coli DH5α, the minimum inhibitory concentration (MIC) was 50 µg/mL. In the test on E. coli BL21, the “MIC against E. coli BL21” value is 12.5 µg/mL. Besides, in the test with Pseudomonas aeruginosa (Pseudomonas aeruginosa), the “MIC against P. aeruginosa” value came to 50 µg/mL. Besides, the “MIC against K. pneumonia” value against Klebsiella pneumonia (Klebsiella pneumonia) was found to be 100 µg/mL. Moreover, in the test with Enterobacter cloacae (Enterobacter cloacae), the “MIC against E. cloacae” value is 50 µg/mL. Further, in the test with Aeromonas hydrophila (Aeromonas hydrophila), the “MIC against A. hydrophila” value came out at 12.5 µg/mL. Further, the “MIC against C. diversus” value against Citrobacter diversus (Citrobacter diversus) stood at 50 µg/mL. The “MIC against M. catarrhalis” value against Moraxella catarrhalis (Moraxella catarrhalis) amounted to 12.5 µg/mL. For the same substance, the “MIC against P. mirabilis” value in the test with Proteus mirabilis (Proteus mirabilis) turned out to be 25 µg/mL. Moreover, the “MIC against P. vulgaris” value against Proteus vulgaris (Proteus vulgaris) was determined as 50 µg/mL. Further, the “MIC against S. marcescens” value against Serratia marcescens (Serratia marcescens) is 12.5 µg/mL.

On to “PRT64 (PCSSSPCRGGATCALGPHGKNYTCRCPQGYQLDSSQLDCV; listed as Homo sapiens)”, for which the minimal inhibitory concentration (MIC) against E. coli DH5α came to 12.5 µg/mL. Besides, the “MIC (μg/mL) E. coli BL21” value in the test with E. coli BL21 (96-well plate, 37° C., 10 h) amounted to 12.5 µg/mL. For the same substance, the “MIC (μg/mL) P. aeruginosa” value against Pseudomonas aeruginosa (Pseudomonas aeruginosa, 96-well plate, 37° C., 10 h) was 50 µg/mL. In addition, the “MIC (μg/mL) K. pneumonia” value in the test with Klebsiella pneumonia (Klebsiella pneumonia, 96-well plate, 37° C., 10 h) was found to be 25 µg/mL. In addition, the “MIC (μg/mL) E. cloacae” value against Enterobacter cloacae (Enterobacter cloacae, 96-well plate, 37° C., 10 h) was found to be 12.5 µg/mL. For the same substance, in the test on Aeromonas hydrophila (Aeromonas hydrophila, 96-well plate, 37° C., 10 h), the “MIC (μg/mL) A. hydrophila” value stood at 25 µg/mL. Further, the “MIC (μg/mL) C. diversus” value in the test with Citrobacter diversus (Citrobacter diversus, 96-well plate, 37° C., 10 h) was 50 µg/mL. In addition, the “MIC (μg/mL) M. catarrhalis” value in the test with Moraxella catarrhalis (Moraxella catarrhalis, 96-well plate, 37° C., 10 h) is 25 µg/mL. Besides, the “MIC (μg/mL) P. mirabilis” value with Proteus mirabilis (Proteus mirabilis, 96-well plate, 37° C., 10 h) came to 25 µg/mL. The “MIC (μg/mL) P. vulgaris” value in the test on Proteus vulgaris (Proteus vulgaris, 96-well plate, 37° C., 10 h) amounted to 25 µg/mL. Moreover, the “MIC (μg/mL) S. marcescens” value against Serratia marcescens (Serratia marcescens, 96-well plate, 37° C., 10 h) worked out at 25 µg/mL.

Turning to “PRT1389 (PEEQCIDPTCFGHGTCIMGVCICVPGYKGEICE; listed as Homo sapiens)”, the MIC against E. coli DH5α came out at 25 µg/mL. The “MIC against E. coli BL21” value against E. coli BL21 came to 12.5 µg/mL. Besides, the “MIC against P. aeruginosa” value in the test with Pseudomonas aeruginosa (Pseudomonas aeruginosa) came to 25 µg/mL. Moreover, in the test with Klebsiella pneumonia (Klebsiella pneumonia), the “MIC against K. pneumonia” value was found to be 12.5 µg/mL. In the test with Enterobacter cloacae (Enterobacter cloacae), the “MIC against E. cloacae” value worked out at 25 µg/mL. For the same substance, the “MIC against A. hydrophila” value with Aeromonas hydrophila (Aeromonas hydrophila) amounted to 12.5 µg/mL. In addition, the “MIC against C. diversus” value against Citrobacter diversus (Citrobacter diversus) was 12.5 µg/mL. Also, the “MIC against M. catarrhalis” value against Moraxella catarrhalis (Moraxella catarrhalis) came out at 12.5 µg/mL. In addition, the “MIC against P. mirabilis” value against Proteus mirabilis (Proteus mirabilis) was determined as 12.5 µg/mL. Besides, in the test with Proteus vulgaris (Proteus vulgaris), the “MIC against P. vulgaris” value came to 25 µg/mL. Further, the “MIC against S. marcescens” value with Serratia marcescens (Serratia marcescens) was 12.5 µg/mL.

In the case of “PRT424 (DINECVTDLHTCSRGEHCVNTLGSFHCYKALTCEPGYALKDGECE; listed as Homo sapiens)”, the MIC against E. coli DH5α was determined as 25 µg/mL; against E. coli BL21, 50 µg/mL; with Pseudomonas aeruginosa, 25 µg/mL; against Klebsiella pneumonia, 12.5 µg/mL; against Enterobacter cloacae, 25 µg/mL; against Aeromonas hydrophila, 50 µg/mL. In addition, the MIC against Citrobacter diversus was 25 µg/mL; against Moraxella catarrhalis, 12.5 µg/mL; against Proteus mirabilis, 25 µg/mL; in the test on Proteus vulgaris it was 50 µg/mL; with Serratia marcescens, 25 µg/mL.

As for “PRT427 (DVNECETGVHRCGEGQVCHNLPGSYRCDCKAGFQRDAFGRGCI; listed as Homo sapiens)”, the MIC was determined as 25 µg/mL in the test with E. coli DH5α; 12.5 µg/mL in the test with E. coli BL21; 25 µg/mL in the test with Pseudomonas aeruginosa; 50 µg/mL with Klebsiella pneumonia; 25 µg/mL in the test with Enterobacter cloacae; 12.5 µg/mL in the test on Aeromonas hydrophila. The MIC in the test on Citrobacter diversus is 25 µg/mL; in the test with Moraxella catarrhalis it was 50 µg/mL; against Proteus mirabilis, 25 µg/mL; against Proteus vulgaris, 12.5 µg/mL; in the test with Serratia marcescens, 25 µg/mL.
